Assay results from the NIST ThermoML archive (doi:10.1021/je700647x).

Tests used:
[1] = xn = mol fraction of the nth substance listed; details: Ring tensiometer
[2] = Ring tensiometer

OCCN(CCO)CCO [triethanolamine] + CCO
surface tension liquid-gas [mN/m], [1]
Details | x1 = 0.0795 | x1 = 0.1461 | x1 = 0.2209 | x1 = 0.3266 | x1 = 0.4581 | x1 = 0.6263 | x1 = 0.7725 | x1 = 0.8489 | x1 = 0.9304 | x1 = 1
288.15 K | 24.1 | 25.4 | 27.12 | 29.68 | 33.17 | 37.65 | 41.56 | 43.57 | 45.78 | 47.64
293.15 K | 23.69 | 25.02 | 26.77 | 29.34 | 32.72 | 37.11 | 40.89 | 42.86 | 44.96 | 46.77
298.15 K | 23.32 | 24.7 | 26.42 | 28.97 | 32.29 | 36.57 | 40.24 | 42.16 | 44.22 | 45.88
303.15 K | 23.02 | 24.41 | 26.11 | 28.61 | 31.87 | 36.02 | 39.61 | 41.47 | 43.47 | 45.16
308.15 K | 22.71 | 24.12 | 25.78 | 28.21 | 31.42 | 35.48 | 39 | 40.83 | 42.77 | 44.42
313.15 K | 22.35 | 23.81 | 25.46 | 27.79 | 30.89 | 34.82 | 38.21 | 39.97 | 41.84 | 43.4

CCO [ethanol] + CN(CCO)CCO
Details | surface tension liquid-gas [mN/m]
[1], 298.15 K, x2 = 0 | 21.85

CN(CCO)CCO [N-methyldiethanolamine] + CCO
surface tension liquid-gas [mN/m], [1]
Details | 288.15 K | 293.15 K | 298.15 K | 303.15 K | 308.15 K | 313.15 K
x1 = 0.0253 | 23.45 | 23.11 | 22.79 | 22.49 | 22.16 | 21.92
x1 = 0.0321 | 23.58 | 23.24 | 22.92 | 22.63 | 22.27 | 22.04
x1 = 0.1033 | 24.92 | 24.59 | 24.32 | 24.06 | 23.77 | 23.58
x1 = 0.1629 | 26.03 | 25.7 | 25.45 | 25.26 | 24.94 | 24.81
x1 = 0.1705 | 26.18 | 25.83 | 25.59 | 25.38 | 25.08 | 24.98
x1 = 0.2474 | 27.58 | 27.24 | 27.02 | 26.79 | 26.53 | 26.44
x1 = 0.3713 | 29.85 | 29.47 | 29.28 | 28.95 | 28.75 | 28.63
x1 = 0.4806 | 31.8 | 31.4 | 31.18 | 30.84 | 30.62 | 30.49
x1 = 0.5506 | 33.02 | 32.6 | 32.39 | 32.01 | 31.78 | 31.66
x1 = 0.7035 | 35.58 | 35.06 | 34.92 | 34.48 | 34.24 | 34.07
x1 = 0.7452 | 36.25 | 35.71 | 35.58 | 35.08 | 34.84 | 34.66
x1 = 0.8227 | 37.51 | 36.91 | 36.71 | 36.09 | 35.8 | 35.57
x1 = 0.9368 | 39.11 | 38.42 | 38.1 | 37.39 | 37 | 36.73
x1 = 1 | 39.99 | 39.26 | 38.92 | 38.08 | 37.63 | 37.25

CCO [ethanol] + OCCN(CCO)CCO
Details | surface tension liquid-gas [mN/m]
[1], 298.15 K, x2 = 0 | 21.85

CCO [ethanol]
Details | surface tension liquid-gas [mN/m]
[2], 298.15 K | 21.85

CN(CCO)CCO [N-methyldiethanolamine]
[2]
Details | surface tension liquid-gas [mN/m]
288.15 K | 39.99
293.15 K | 39.26
298.15 K | 38.92
303.15 K | 38.08
308.15 K | 37.63
313.15 K | 37.25

OCCN(CCO)CCO [triethanolamine]
[2]
Details | surface tension liquid-gas [mN/m]
288.15 K | 47.64
293.15 K | 46.77
298.15 K | 45.88
303.15 K | 45.16
308.15 K | 44.42
313.15 K | 43.4
